Each structure is given as a SMILES string.

The target in one assay is CDK2 (human) (UniProt P24941). The assay can be described thus: Cell-Based Assay.
The target of the next assay is CDK2 (UniProt P24941). The assay can be described thus: Enzyme Assay.

For `Cc1[nH]nc2c1N=C(c1ccccc1F)c1ccccc1N2`, the IC50 (usually the concentration at which inhibition is half-maximal) at CDK2 (human) (mda-mb-435) was in the range of 1100 to 9990 nM; on CDK2 (human) (sw480) it was 10 to 1000 nM.

In the case of `Cc1[nH]nc2c1N=C(c1ccccc1Cl)c1cc(NS(=O)(=O)NCCl)ccc1N2`, the IC50 against CDK2 (human) (mda-mb-435) and against CDK2 (human) (sw480) was 1100 to 9990 nM throughout.

For the compound `Cc1[nH]nc2c1N=C(c1ccccc1Cl)c1cc(NS(=O)(=O)N(C)C)ccc1N2`, the IC50 at CDK2 (human) (mda-mb-435) is 10 to 1000 nM; on CDK2 (human) (sw480), 1100 to 9990 nM.

For `O=C(O)c1ccc2c(c1)C(c1ccccc1F)=Nc1c[nH]nc1N2`, the IC50 on CDK2 lay within 1000 to 9990 nM.

On to `O=[N+]([O-])c1ccc2c(c1)C(c1ccccc1Cl)=Nc1c(n[nH]c1CO)N2`, for which the IC50 against CDK2 (human) (mda-mb-435) and against CDK2 (human) (sw480) was 10 to 1000 nM throughout.

In the case of `O=C(c1ccc2c(c1)C(c1ccccc1F)=Nc1c[nH]nc1N2)N1CCOCC1`, the values for the IC50 against CDK2 (human) (hct 116) and against CDK2 (human) (sw480) were 10000 to 30000 nM and 10 to 1000 nM, respectively.

As to `O=[N+]([O-])c1ccc2c(c1)C(c1ccccc1Cl)=Nc1c(n[nH]c1-c1ccccc1)N2`, the IC50 against CDK2 (human) (hct 116) and against CDK2 (human) (sw480) was 10000 to 30000 nM in each case.

Take `O=[N+]([O-])c1ccc2c(c1)C(c1ccccc1Cl)=Nc1c(n[nH]c1-c1ccco1)N2`: the IC50 on CDK2 (human) (hct 116) and against CDK2 (human) (sw480) was 10000 to 30000 nM in each case.

As for `O=[N+]([O-])c1ccc2c(c1)C(c1ccccc1)=Nc1c(n[nH]c1-c1ccccc1F)N2`, the IC50 on CDK2 is 10000 to 30000 nM.

In the case of `Cc1[nH]nc2c1N=C(c1ccccc1)c1cc([N+](=O)[O-])ccc1N2`, the IC50 against CDK2 (human) (mda-mb-435) and at CDK2 (human) (sw480) was 10 to 1000 nM each time.

In turn, `O=[N+]([O-])c1ccc2c(c1)C(c1ccccc1Cl)=Nc1c(n[nH]c1-c1ccsc1)N2` displayed a concentration for half-maximal inhibition (IC50) on CDK2 of 10 to 990 nM.

Regarding `Cc1ccc(-c2[nH]nc3c2N=C(c2ccccc2Cl)c2cc([N+](=O)[O-])ccc2N3)s1`, the IC50 on CDK2 was 1000 to 9990 nM.

Take `O=[N+]([O-])c1ccc2c(c1)C(c1ccccc1Cl)=Nc1c(n[nH]c1C1CC1)N2`: the IC50 on CDK2 (human) (hct 116) lay in the range of 1100 to 9990 nM; against CDK2 (human) (mda-mb-435), 10 to 1000 nM; at CDK2 (human) (sw480) it was 1100 to 9990 nM.

Consider `Cc1[nH]nc2c1N=C(c1ccccc1F)c1cc(C#N)ccc1N2`, for which the IC50 is 1100 to 9990 nM against CDK2 (human) (hct 116), 10 to 1000 nM against CDK2 (human) (mda-mb-435) and 10 to 1000 nM against CDK2 (human) (sw480).

For the compound `N#Cc1ccc2c(c1)C(c1ccccc1F)=Nc1c[nH]nc1N2`, the IC50 at CDK2 (human) (hct 116), on CDK2 (human) (mda-mb-435) and against CDK2 (human) (sw480) was 1100 to 9990 nM throughout.

Consider `Cc1cccc(-c2[nH]nc3c2N=C(c2ccccc2Cl)c2cc([N+](=O)[O-])ccc2N3)c1`, for which the IC50 at CDK2 lay within 1000 to 9990 nM.

As for `CN(C)C(=O)c1[nH]nc2c1N=C(c1ccccc1Cl)c1cc([N+](=O)[O-])ccc1N2`, at CDK2, the IC50 fell in the range of 1000 to 9990 nM.

As for `Clc1ccc2c(c1)C(c1ccccc1Cl)=Nc1c[nH]nc1N2`, the IC50 against CDK2 was 10000 to 30000 nM.

For `NC(=O)c1[nH]nc2c1N=C(c1ccccc1Cl)c1cc([N+](=O)[O-])ccc1N2`, the IC50 on CDK2 (human) (mda-mb-435) was 10000 to 30000 nM.

For `O=[N+]([O-])c1ccc2c(c1)C(c1ccccc1Cl)=Nc1c(n[nH]c1-c1cccnc1)N2`, the IC50 against CDK2 (human) (hct 116) and against CDK2 (human) (sw480) was 10000 to 30000 nM throughout.

With `Cc1cn[nH]c1-c1[nH]nc2c1N=C(c1ccccc1Cl)c1cc([N+](=O)[O-])ccc1N2`, the values for the IC50 against CDK2 (human) (hct 116), at CDK2 (human) (mda-mb-435) and at CDK2 (human) (sw480) were 1100 to 9990 nM, 1100 to 9990 nM and 10 to 1000 nM, respectively.

`O=[N+]([O-])c1ccc2c(c1)C(c1ccccc1Cl)=Nc1c(n[nH]c1-c1ccc3ccccc3c1)N2` displayed an IC50 against CDK2 of 1000 to 9990 nM.

`O=C(c1ccc2c(c1)C(c1ccccc1F)=Nc1c[nH]nc1N2)N(CCO)CCO` displayed a 50% inhibitory concentration (IC50) on CDK2 of 1000 to 9990 nM.

For the compound `O=Cc1[nH]nc2c1N=C(c1ccccc1Cl)c1cc([N+](=O)[O-])ccc1N2`, the IC50 against CDK2 (human) (mda-mb-435) fell in the range of 10 to 1000 nM.

With `N#Cc1ccc2c(c1)C(c1ccccc1F)=Nc1c(n[nH]c1CO)N2`, the half-inhibitory concentration (IC50) on CDK2 (human) (mda-mb-435) and at CDK2 (human) (sw480) was 10 to 1000 nM each time.

Compound `Fc1ccccc1C1=Nc2c[nH]nc2Nc2ccc(I)cc21` showed an IC50 against CDK2 of 1000 to 9990 nM.

`Cc1[nH]nc2c1N=C(c1ccccc1F)c1cc(C(=O)NCCN3CCOCC3)ccc1N2`: the figures for the half-maximal inhibitory concentration (IC50) on CDK2 (human) (mda-mb-435) and against CDK2 (human) (sw480) were 1100 to 9990 nM and 10 to 1000 nM, respectively.

On to `O=[N+]([O-])c1ccc2c(c1)C(c1ccccc1)=Nc1c(n[nH]c1-c1cccnc1)N2`, for which, on CDK2, the IC50 was in the range of 1000 to 9990 nM.

Regarding `O=[N+]([O-])c1ccc2c(c1)C(c1ccccc1)=Nc1c(n[nH]c1C1CC1)N2`, the IC50 against CDK2 (human) (hct 116) was in the range of 10000 to 30000 nM.

As to `COCc1[nH]nc2c1N=C(c1ccccc1Cl)c1cc([N+](=O)[O-])ccc1N2`, the half-inhibitory concentration (IC50) against CDK2 (human) (mda-mb-435) was 1100 to 9990 nM.

At CDK2, `Clc1ccc2c(c1)C(c1ccccc1)=Nc1c[nH]nc1N2` came in with an IC50 of 1000 to 9990 nM.

For the compound `O=[N+]([O-])c1ccc2c(c1)C(c1ccccc1Cl)=Nc1c(n[nH]c1-c1c[nH]cn1)N2`, the IC50 on CDK2 (human) (mda-mb-435) fell in the range of 1100 to 9990 nM.

Regarding `O=[N+]([O-])c1ccc2c(c1)C(c1ccccc1)=Nc1c(n[nH]c1-c1ccc3c(c1)OCO3)N2`, the IC50 at CDK2 lay within 10000 to 30000 nM.

`N#Cc1ccccc1-c1[nH]nc2c1N=C(c1ccccc1Cl)c1cc([N+](=O)[O-])ccc1N2` came in with an IC50 against CDK2 of 1000 to 9990 nM.

For `O=[N+]([O-])c1ccc2c(c1)C(c1ccccc1Cl)=Nc1c(n[nH]c1-c1cccc3ccccc13)N2`, the half-maximal inhibitory concentration (IC50) against CDK2 (human) (hct 116) and against CDK2 (human) (sw480) was 10000 to 30000 nM throughout.

As to `Cc1[nH]nc2c1N=C(c1ccccc1F)c1cc([N+](=O)[O-])ccc1N2`, the IC50 against CDK2 (human) (mda-mb-435) and at CDK2 (human) (sw480) was 10 to 1000 nM in each case.
